Measurements taken from PMC10175918 (Communications Biology, 2023).
Where two headings read alike, the source gives them in different places.

Key:
Assay in all cases: TGFα-shedding assay-based GPCR screening with chimeric Gα subunit proteins
Type in all cases: cell-based
348 GPCRs [1] = target: T1, 348 GPCRs (Homo sapiens, UniProt Q96P68)
T1 construct: expressed in transfected cells; host or cells: HEK293A

348 GPCRs [2] = target: T2, 348 GPCRs (Homo sapiens, UniProt Q13258); settings: 10µM, Favipiravir 100μM
T2 sequence (Q13258 1-359): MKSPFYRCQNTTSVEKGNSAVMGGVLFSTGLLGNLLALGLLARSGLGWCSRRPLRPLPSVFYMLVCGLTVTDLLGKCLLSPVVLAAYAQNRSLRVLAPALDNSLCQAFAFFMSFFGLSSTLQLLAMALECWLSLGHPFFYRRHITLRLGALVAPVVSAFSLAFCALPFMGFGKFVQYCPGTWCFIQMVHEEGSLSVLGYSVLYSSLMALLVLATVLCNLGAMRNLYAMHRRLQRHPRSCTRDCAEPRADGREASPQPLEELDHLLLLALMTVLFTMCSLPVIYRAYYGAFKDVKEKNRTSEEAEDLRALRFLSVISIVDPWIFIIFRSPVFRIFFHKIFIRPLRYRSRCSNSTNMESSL

348 GPCRs [3] = target: T3, 348 GPCRs (Homo sapiens, UniProt Q92633); settings: 10µM, Favipiravir 100μM
T3 construct: expressed in transfected cells; host or cells: HEK293A
T3 sequence (Q92633 whole entry): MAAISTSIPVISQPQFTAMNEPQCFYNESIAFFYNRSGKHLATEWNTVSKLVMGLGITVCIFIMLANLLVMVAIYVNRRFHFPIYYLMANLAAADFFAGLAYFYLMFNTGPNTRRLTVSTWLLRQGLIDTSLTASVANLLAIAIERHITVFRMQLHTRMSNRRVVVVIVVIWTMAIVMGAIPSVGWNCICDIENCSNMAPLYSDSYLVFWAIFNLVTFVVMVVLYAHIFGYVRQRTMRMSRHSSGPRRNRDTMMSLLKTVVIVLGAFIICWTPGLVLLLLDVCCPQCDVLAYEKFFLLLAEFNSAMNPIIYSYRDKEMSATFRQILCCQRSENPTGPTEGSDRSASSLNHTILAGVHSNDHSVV

348 GPCRs [4] = target: T4, 348 GPCRs (Homo sapiens, UniProt Q9UBS5); settings: 10µM, Favipiravir 100μM
T4 construct: expressed in transfected cells; host or cells: HEK293A
T4 sequence (Q9UBS5 20-961): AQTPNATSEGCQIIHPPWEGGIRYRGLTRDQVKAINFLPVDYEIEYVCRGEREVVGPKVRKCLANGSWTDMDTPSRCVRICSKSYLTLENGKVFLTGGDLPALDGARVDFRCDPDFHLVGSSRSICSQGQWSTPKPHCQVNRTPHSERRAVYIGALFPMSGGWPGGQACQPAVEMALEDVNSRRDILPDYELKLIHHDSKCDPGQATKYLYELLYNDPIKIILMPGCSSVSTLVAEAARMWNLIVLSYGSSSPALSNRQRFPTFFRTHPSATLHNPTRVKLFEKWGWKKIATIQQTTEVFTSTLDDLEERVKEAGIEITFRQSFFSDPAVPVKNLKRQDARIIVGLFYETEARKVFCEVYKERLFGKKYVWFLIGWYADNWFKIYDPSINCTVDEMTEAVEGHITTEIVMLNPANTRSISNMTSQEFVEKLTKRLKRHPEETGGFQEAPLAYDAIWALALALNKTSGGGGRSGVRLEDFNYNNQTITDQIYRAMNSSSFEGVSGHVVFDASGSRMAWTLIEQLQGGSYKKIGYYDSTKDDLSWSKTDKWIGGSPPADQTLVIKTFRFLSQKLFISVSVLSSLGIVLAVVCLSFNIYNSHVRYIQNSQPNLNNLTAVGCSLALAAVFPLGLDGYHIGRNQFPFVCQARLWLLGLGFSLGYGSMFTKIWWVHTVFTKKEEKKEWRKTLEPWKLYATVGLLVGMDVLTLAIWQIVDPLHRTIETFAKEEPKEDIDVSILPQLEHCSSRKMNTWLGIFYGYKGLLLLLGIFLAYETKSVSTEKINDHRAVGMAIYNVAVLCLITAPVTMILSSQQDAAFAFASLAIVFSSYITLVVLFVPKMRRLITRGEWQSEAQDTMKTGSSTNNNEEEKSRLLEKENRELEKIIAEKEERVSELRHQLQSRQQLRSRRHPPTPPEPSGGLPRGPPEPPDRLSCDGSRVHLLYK

348 GPCRs [5] = target: T5, 348 GPCRs (Homo sapiens, UniProt O00254); settings: 10µM, Favipiravir 100μM
T5 construct: expressed in transfected cells; host or cells: HEK293A
T5 sequence (O00254 22-374): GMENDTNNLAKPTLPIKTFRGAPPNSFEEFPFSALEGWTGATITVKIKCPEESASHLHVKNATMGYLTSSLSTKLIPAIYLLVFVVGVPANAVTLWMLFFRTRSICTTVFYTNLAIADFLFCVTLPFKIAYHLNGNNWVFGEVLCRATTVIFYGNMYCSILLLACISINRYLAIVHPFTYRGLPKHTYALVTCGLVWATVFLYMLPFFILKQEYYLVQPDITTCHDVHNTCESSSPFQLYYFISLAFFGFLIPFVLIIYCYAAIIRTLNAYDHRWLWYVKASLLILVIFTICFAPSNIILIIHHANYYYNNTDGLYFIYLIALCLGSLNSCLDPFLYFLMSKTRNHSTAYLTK

348 GPCRs [6] = target: T6, 348 GPCRs (Homo sapiens, UniProt P34995); settings: 10µM, Favipiravir 100μM
T6 construct: expressed in transfected cells; host or cells: HEK293A
T6 sequence (P34995 1-402): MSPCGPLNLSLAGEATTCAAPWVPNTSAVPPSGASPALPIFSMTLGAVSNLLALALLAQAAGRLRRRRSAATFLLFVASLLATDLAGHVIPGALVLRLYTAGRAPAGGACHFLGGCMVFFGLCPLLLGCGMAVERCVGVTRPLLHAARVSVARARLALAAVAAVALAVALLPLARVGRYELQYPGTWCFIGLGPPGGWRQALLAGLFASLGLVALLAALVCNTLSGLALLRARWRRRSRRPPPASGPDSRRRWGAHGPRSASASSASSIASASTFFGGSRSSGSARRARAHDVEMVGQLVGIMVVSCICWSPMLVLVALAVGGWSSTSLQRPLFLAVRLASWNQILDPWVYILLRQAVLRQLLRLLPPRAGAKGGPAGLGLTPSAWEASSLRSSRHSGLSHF

348 GPCRs [7] = target: 348 GPCRs (Homo sapiens, UniProt P41595); settings: 10µM, Favipiravir 100μM
Chain of 348 GPCRs (Homo sapiens, UniProt P41595) (P41595 whole entry): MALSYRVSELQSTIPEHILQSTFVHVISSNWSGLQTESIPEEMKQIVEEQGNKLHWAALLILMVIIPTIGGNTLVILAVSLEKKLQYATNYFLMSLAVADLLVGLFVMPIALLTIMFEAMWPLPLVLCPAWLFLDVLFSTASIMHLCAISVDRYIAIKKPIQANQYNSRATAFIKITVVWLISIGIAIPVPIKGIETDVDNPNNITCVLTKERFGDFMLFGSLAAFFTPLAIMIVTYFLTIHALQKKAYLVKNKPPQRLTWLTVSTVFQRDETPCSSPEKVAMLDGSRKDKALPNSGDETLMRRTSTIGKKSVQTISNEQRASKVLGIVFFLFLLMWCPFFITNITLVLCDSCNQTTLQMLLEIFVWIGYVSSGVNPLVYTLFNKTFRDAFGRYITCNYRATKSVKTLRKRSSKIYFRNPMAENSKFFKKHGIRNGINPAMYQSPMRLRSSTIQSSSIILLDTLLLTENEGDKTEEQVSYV

348 GPCRs [8] = target: T7, 348 GPCRs (Homo sapiens, UniProt P49683); settings: 10µM, Favipiravir 100μM
T7 construct: expressed in transfected cells; host or cells: HEK293A
T7 sequence (P49683 1-370): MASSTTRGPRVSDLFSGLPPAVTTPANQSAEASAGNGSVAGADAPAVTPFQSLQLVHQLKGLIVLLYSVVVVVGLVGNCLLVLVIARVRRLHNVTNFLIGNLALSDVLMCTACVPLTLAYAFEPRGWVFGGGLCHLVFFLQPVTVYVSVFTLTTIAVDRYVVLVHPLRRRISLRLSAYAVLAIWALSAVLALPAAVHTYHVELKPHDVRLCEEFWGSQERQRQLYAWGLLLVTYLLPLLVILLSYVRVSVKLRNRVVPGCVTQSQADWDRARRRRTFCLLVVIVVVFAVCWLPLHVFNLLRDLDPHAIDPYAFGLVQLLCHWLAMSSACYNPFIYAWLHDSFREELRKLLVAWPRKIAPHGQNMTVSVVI

348 GPCRs [9] = target: T8, 348 GPCRs (Homo sapiens, UniProt P30411); settings: 10µM, Favipiravir 100μM
T8 sequence (P30411 1-391): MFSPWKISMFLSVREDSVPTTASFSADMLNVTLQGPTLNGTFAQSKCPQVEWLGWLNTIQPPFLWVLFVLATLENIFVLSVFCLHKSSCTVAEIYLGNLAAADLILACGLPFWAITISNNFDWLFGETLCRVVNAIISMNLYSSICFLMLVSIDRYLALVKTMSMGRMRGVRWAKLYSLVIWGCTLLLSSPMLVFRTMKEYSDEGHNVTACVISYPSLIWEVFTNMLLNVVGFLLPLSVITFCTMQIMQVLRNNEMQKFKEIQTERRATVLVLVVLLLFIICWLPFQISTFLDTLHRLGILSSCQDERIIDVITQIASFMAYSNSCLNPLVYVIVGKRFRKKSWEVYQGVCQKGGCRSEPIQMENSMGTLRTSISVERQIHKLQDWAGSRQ

[10] = GPCR OXGR1 (oxoglutarate (alpha-ketoglutarate) receptor 1), read-out: % GPCR activation compared to TPA
[11] = DP (prostaglandin D2 receptor), read-out: % GPCR activation compared to TPA
[12] = LPAR1 (lysophosphatidic acid receptor 1), read-out: % GPCR activation compared to TPA
[13] = GABBR1 (gamma-aminobutyric acid (GABA) B receptor, 1), read-out: % GPCR activation compared to TPA
[14] = F2RL2 (coagulation factor II (thrombin) receptor-like 2), read-out: % GPCR activation compared to TPA
[15] = EP1 (prostaglandin E receptor 1), read-out: % GPCR activation compared to TPA
[16] = HTR2B (5-hydroxytryptamine (serotonin) receptor 2B), read-out: % GPCR activation compared to TPA
[17] = PRLHR (prolactin releasing hormone receptor), read-out: % GPCR activation compared to TPA
[18] = B2 (bradykinin receptor B2), read-out: % GPCR activation compared to TPA
[19] = read-out: % GPCR activation compared to TPA, GPCR OXGR1 (oxoglutarate (alpha-ketoglutarate) receptor 1)
[20] = read-out: % GPCR activation compared to TPA, DP (prostaglandin D2 receptor)
[21] = read-out: % GPCR activation compared to TPA, LPAR1 (lysophosphatidic acid receptor 1)
[22] = read-out: % GPCR activation compared to TPA, GABBR1 (gamma-aminobutyric acid (GABA) B receptor, 1)
[23] = read-out: % GPCR activation compared to TPA, F2RL2 (coagulation factor II (thrombin) receptor-like 2)
[24] = read-out: % GPCR activation compared to TPA, EP1 (prostaglandin E receptor 1)
[25] = read-out: % GPCR activation compared to TPA, HTR2B (5-hydroxytryptamine (serotonin) receptor 2B)
[26] = read-out: % GPCR activation compared to TPA, PRLHR (prolactin releasing hormone receptor)
[27] = read-out: % GPCR activation compared to TPA, B2 (bradykinin receptor B2)

| Compound | activation at 10 µM (348 GPCRs [1]; [10]) [%] | activation at 100 µM (348 GPCRs [2]; [11]) [%] | activation at 10 µM (348 GPCRs [3]; [12]) [%] | activation at 100 µM (348 GPCRs [4]; [13]) [%] | activation at 10 µM (348 GPCRs [5]; [14]) [%] | activation at 100 µM (348 GPCRs [6]; [15]) [%] | activation at 100 µM (348 GPCRs [7]; [16]) [%] | activation at 100 µM (348 GPCRs [8]; [17]) [%] | activation at 10 µM (348 GPCRs [9]; [18]) [%] | activation at 100 µM (348 GPCRs [1]; GPCR OXGR1 (oxoglutarate (alpha-ketoglutarate) receptor 1), 100μM, read-out: % GPCR activation compared to TPA) [%] | activation at 10 µM (348 GPCRs [1]; [19]) [%] | activation at 100 µM (348 GPCRs [2]; [20]) [%] | activation at 10 µM (348 GPCRs [3]; [21]) [%] | activation at 100 µM (348 GPCRs [4]; [22]) [%] | activation at 10 µM (348 GPCRs [5]; [23]) [%] | activation at 100 µM (348 GPCRs [6]; [24]) [%] | activation at 100 µM (348 GPCRs [7]; [25]) [%] | activation at 100 µM (348 GPCRs [8]; [26]) [%] | activation at 10 µM (348 GPCRs [9]; [27]) [%] |
| --- | --- | --- | --- | --- | --- | --- | --- | --- | --- | --- | --- | --- | --- | --- | --- | --- | --- | --- | --- |
| CC(C)C(=O)OC[C@H]1O[C@@H](n2ccc(NO)nc2=O)[C@H](O)[C@@H]1O [molnupiravir] | 0.239 | -0.606 | -1.42 | -1.05 | -1.18 | 0.204 | -1.16 | -3.13 | 1.04 | – | – | – | – | – | – | – | – | – | – |
| CCC(CC)COC(=O)[C@H](C)N[P@](=O)(OC[C@H]1O[C@@](C#N)(c2ccc3c(N)ncnn23)[C@H](O)[C@@H]1O)Oc1ccccc1 [remdesivir] | – | – | – | – | – | – | – | – | – | – | 0.444 | 6.06 | 0.719 | -3.66 | -1.15 | 0.488 | -4.14 | 0.33 | 1.57 |
| CC(C)OC(=O)[C@H](C)N[P@](=O)(OC[C@H]1O[C@@H](n2ccc(=O)[nH]c2=O)[C@](C)(F)[C@@H]1O)Oc1ccccc1 [sofosbuvir] | – | – | – | – | – | – | – | – | – | – | 1.77 | -0.617 | 3.41 | -1.14 | 1.05 | -0.685 | -0.398 | -8.24 | 0.561 |

Second part, led by results:

| activation at 10 µM (348 GPCRs [1]; [10]) [%] | activation at 100 µM (348 GPCRs [2]; [11]) [%] | activation at 10 µM (348 GPCRs [3]; [12]) [%] | activation at 100 µM (348 GPCRs [4]; [13]) [%] | activation at 10 µM (348 GPCRs [5]; [14]) [%] | activation at 100 µM (348 GPCRs [6]; [15]) [%] | activation at 100 µM (348 GPCRs [7]; [16]) [%] | activation at 100 µM (348 GPCRs [8]; [17]) [%] | activation at 10 µM (348 GPCRs [9]; [18]) [%] | activation at 100 µM (348 GPCRs [1]; GPCR OXGR1 (oxoglutarate (alpha-ketoglutarate) receptor 1), 100μM, read-out: % GPCR activation compared to TPA) [%] | Compound | activation at 10 µM (348 GPCRs [1]; [19]) [%] | activation at 100 µM (348 GPCRs [2]; [20]) [%] | activation at 10 µM (348 GPCRs [3]; [21]) [%] | activation at 100 µM (348 GPCRs [4]; [22]) [%] | activation at 10 µM (348 GPCRs [5]; [23]) [%] | activation at 100 µM (348 GPCRs [6]; [24]) [%] | activation at 100 µM (348 GPCRs [7]; [25]) [%] | activation at 100 µM (348 GPCRs [8]; [26]) [%] | activation at 10 µM (348 GPCRs [9]; [27]) [%] |
| --- | --- | --- | --- | --- | --- | --- | --- | --- | --- | --- | --- | --- | --- | --- | --- | --- | --- | --- | --- |
| -0.462 | -1.84 | 1.19 | -3.77 | -2.64 | -1.84 | 0.0796 | -1.86 | -3 | – | N#C[C@@]1(c2ccc3c(N)ncnn23)O[C@H](CO)[C@@H](O)[C@H]1O [GS441524] | – | – | – | – | – | – | – | – | – |
| – | -1.59 | 0.687 | -4.01 | -0.958 | -1.04 | 0.187 | 1.46 | 1.08 | -1.07 | NC(=O)c1nc(F)cnc1O [favipiravir, 6-fluoro-3-hydroxy-2-pyrazinecarboxamide] | – | – | – | – | – | – | – | – | – |
